In assay [1] the target is α-Glucosidase. Nature of the assay: α-Glucosidase inhibitory activity (p-NPG substrate, 96-well plate). To be noted: for α-Glucosidase inhibition (%): mean of three replicates. Format: biochemical. As to the method: α-Glucosidase inhibitory activity was established by using a 96-well microtiter plate in accordance with the described method (Tao et al. […] Samples were dissolved in dimethyl sulfoxide (DMSO) and all samples (20 µL) together with the enzyme solution (20 µL) were mixed in the plate. Afterwards, the substrate (40 µL) was added for initiation of the reaction and the mixture was incubated at 37 °C for 40 min. After incubation is complete, 0.2 M sodium carbonate (80 µL) in phosphate buffer (pH 6.8) was added to all wells in order to quench the reaction. The amount of released p-nitrophenol (pNP) was measured at 405 nm using a 96-well microplate reader. Each assay for all samples was carried out in triplicate. […] All results are expressed as mean ± SE and differences between means were statistically analyzed using one-way analysis of ANOVA followed by Bonferroni’s complementary analysis, with p < 0.05 considered to indicate statistical significance.

Assay [2] deals with α-Glucosidase. To be noted: cited from earlier work; for α-glucosidase inhibitory activity (in words): compared to acarbose, ref Luo et al. [2012].
For the next assay, the system named is α-amylase. Nature of the assay: α-Amylase inhibitory activity (starch, dinitrosalicylic acid). To be noted: concentration 1 mg/mL. Type of assay: biochemical. As to the method: α-Amylase inhibitory activity was established in accordance with the reported method (Nampoothiri et al. [2011]) with slight modifications. One percent starch solution (100 µL) in 20 mM sodium phosphate buffer (pH 6.9 with 6 mM sodium chloride) and sample solutions (100 µL) were incubated at 25 °C for 10 min in 24-well microplate. After incubation, 100 µL α-amylase solution (0.5 mg/mL) was added to each well and the reaction mixtures were incubated at 25 °C for 10 min. In order to stop the reaction after the incubation, dinitrosalicylic acid color reagent (200 µL) was added and then the microplate was incubated in a boiling water bath for 5 min and cooled at room temperature. 50 µL was taken from each well and then was added to 96-well microplate. The reaction mixture was diluted by adding 200 µL distilled water and absorbance was measured at 540 nm. Each assay for all samples was carried out in triplicate. Percentage inhibitions of all samples were calculated using the equation at following: Inhibition %=1-ΔAsample /ΔAcontrol×100
All results are expressed as mean ± SE and differences between means were statistically analyzed using one-way analysis of ANOVA followed by Bonferroni’s complementary analysis, with p < 0.05 considered to indicate statistical significance.

Structures are written as SMILES. ≈ marks a conversion by molar mass, not a printed value. Where two headings read alike, the source gives them in different places.

Take `CC(C)=CCOc1c2occc2cc2ccc(=O)oc12` [Imperatorin, imperatorin]: on α-Glucosidase [1], the “IC50 value (α-glucosidase)” value turned out to be 1230 µg/mL (≈ 4.55 mM). In addition, the “α-Glucosidase inhibition (%)” value is on record as 63.07 ± 0.69% with α-Glucosidase [1] (concentration 2000 µg/mL); 88.97 ± 0.88% in the assay with α-Glucosidase [1] (concentration 5000 µg/mL); 69.66 ± 3.67% with α-Glucosidase [2] (at 1000 µg/mL, ref Shalaby et al. [2014]). In addition, the “α-glucosidase inhibitory activity (in words)” value in the assay on α-Glucosidase [2] is reported as “too low to compare to that of acarbose”.

For `CC(C)(OC(=O)c1ccccc1)[C@@H]1Cc2cc3ccc(=O)oc3cc2O1` [Felamidin, felamidin], the “IC50 value (α-glucosidase)” value against α-Glucosidase [1] was 420 µg/mL (≈ 1.2 mM). Also, the entries for the “α-Glucosidase inhibition (%)” value in the assay with α-Glucosidase [1] (concentration 2000 µg/mL) and in the assay with α-Glucosidase [1] (concentration 5000 µg/mL) were 64.93 ± 2.06% and 94.57 ± 0.05%, respectively. Also, the “times more effective than acarbose against α-glucosidase” value in the assay with α-Glucosidase [1] (ratio of IC50 values vs acarbose) came out at 11 times.

As to `COc1ccc2ccc(=O)oc2c1CC=C(C)C` [Osthole, osthole], the “IC50 value (α-glucosidase)” value against α-Glucosidase [1] turned out to be 950 µg/mL (≈ 3.89 mM). Besides, the entries for the “α-Glucosidase inhibition (%)” value in the assay with α-Glucosidase [1] (concentration 2000 µg/mL) and in the assay on α-Glucosidase [1] (concentration 5000 µg/mL) were 84.31 ± 1.72% and 93.31 ± 0.29%, respectively.

For the compound `COc1cc2oc(=O)ccc2cc1CC=C(C)C` [Suberosin, suberosin], the “IC50 value (α-glucosidase)” value against α-Glucosidase [1] amounted to 890 µg/mL (≈ 3.64 mM). Moreover, the “α-Glucosidase inhibition (%)” value in the assay on α-Glucosidase [1] (concentration 2000 µg/mL) is 81.58 ± 1.15%; in the assay on α-Glucosidase [1] (concentration 5000 µg/mL) it was 87.95 ± 1.07%.

As to `CC(C)=CC(=O)OC(C)(C)C1Cc2cc3ccc(=O)oc3cc2O1` (centres unmarked) [Prantschimgin, prantschimgin], the “IC50 value (α-glucosidase)” value at α-Glucosidase [1] was 1860 µg/mL (≈ 5.66 mM). Further, the “α-Glucosidase inhibition (%)” value with α-Glucosidase [1] (concentration 2000 µg/mL) is on record as 51.95 ± 0.01%; in the assay on α-Glucosidase [1] (concentration 5000 µg/mL) it was 68.23 ± 0.39%.

Turning to `C[C@H]1O[C@H](O[C@H]2[C@H](O)[C@@H](O)[C@@H](O[C@H]3[C@H](O)[C@@H](O)C(O)O[C@@H]3CO)O[C@@H]2CO)[C@H](O)[C@@H](O)[C@@H]1N[C@H]1C=C(CO)[C@@H](O)[C@H](O)[C@H]1O` (some centres unmarked) [Acarbose, acarbose, reference compound], the “α-Glucosidase inhibition (%)” value was found to be 29.43 ± 1.71% in the assay with α-Glucosidase [1] (concentration 2000 µg/mL) and 50.81 ± 2.51% in the assay with α-Glucosidase [1] (concentration 5000 µg/mL). The same compound yielded a α-amylase inhibition in the assay on α-amylase of 82.28%.

As for `CC(C)=CC(=O)OC(Cc1cc2ccc(=O)oc2cc1O)C(C)(C)O` (centres unmarked) [Grandivitinol, grandivitinol], the “IC50 value (α-glucosidase)” value on α-Glucosidase [1] worked out at 20010 µg/mL (≈ 57.8 mM). Further, the “α-Glucosidase inhibition (%)” value in the assay with α-Glucosidase [1] (concentration 2000 µg/mL) turned out to be 7.84 ± 0.71%; in the assay on α-Glucosidase [1] (concentration 5000 µg/mL) it was 12.30 ± 0.36%.

As for `O=c1ccc2ccc(O)cc2o1` [Umbelliferone, umbelliferone], the “IC50 value (α-glucosidase)” value at α-Glucosidase [1] amounted to 9320 µg/mL (≈ 57.5 mM). In addition, the “α-Glucosidase inhibition (%)” value in the assay with α-Glucosidase [1] (concentration 2000 µg/mL) came to 8.84 ± 0.02%; in the assay on α-Glucosidase [1] (concentration 5000 µg/mL), 10.27 ± 0.49%. The “α-glucosidase IC50 value” at α-Glucosidase [2] (at 0.5 mg/mL, ref Ayyasamy & Rajamanickam 2015) is 547 µg/mL.

`COc1c2ccoc2cc2oc(=O)ccc12` [Bergapten, bergapten]: the “IC50 value (α-glucosidase)” value against α-Glucosidase [1] came out at 6120 µg/mL (≈ 28.3 mM). Moreover, the “α-Glucosidase inhibition (%)” value in the assay on α-Glucosidase [1] (concentration 2000 µg/mL) turned out to be 39.71 ± 2.44%; with α-Glucosidase [1] (concentration 5000 µg/mL), 42.26 ± 0.43%. For the same compound, the “α-glucosidase inhibitory activity (in words)” value in the assay with α-Glucosidase [2] was “too low to compare to that of acarbose”.

Consider `CC(C)(O)C(Cc1cc2ccc(=O)oc2cc1O)OC(=O)c1ccccc1` (centres unmarked) [Peucedanol-2'-benzoate, peucedanol-2′-benzoate], for which the “α-Glucosidase inhibition (%)” value in the assay on α-Glucosidase [1] (concentration 2000 µg/mL) amounted to 66.86 ± 0.37%; in the assay on α-Glucosidase [1] (concentration 5000 µg/mL), 77.22 ± 0.44%.

On to `COc1c2occc2cc2ccc(=O)oc12` [Xanthotoxin, xanthotoxin], for which, at α-Glucosidase [1], the “IC50 value (α-glucosidase)” value was 5380 µg/mL (≈ 24.9 mM). Also, the “α-Glucosidase inhibition (%)” value was found to be 37.95 ± 8.64% with α-Glucosidase [1] (concentration 2000 µg/mL) and 45.76 ± 4.82% with α-Glucosidase [1] (concentration 5000 µg/mL). The “α-glucosidase inhibitory activity (in words)” value in the assay on α-Glucosidase [2] is “too low to compare to that of acarbose”.

(Values after article PMC6130714, “The α-amylase and α-glucosidase inhibitory activities of the dichloromethane extracts and constituents of Ferulago bracteata roots” (Pharmaceutical Biology, 2017).)
